Laboratory results from US7981903B2, “2-[2-{phenylamino}-1H-pyrrolo[2,3-D]pyrimidin-4-yl)amino] benzamide derivatives as IGF-1R inhibitors for the treatment of cancer” (GlaxoSmithKline LLC, priority 2007, dated 2011).

Legend:
human IR (hIR) = molecular target: T1, human IR (hIR) (Homo sapiens, UniProt P06213); test: TR-FRET kinase assay of purified hIR; assay type: biochemical; settings: activated hIR 0.5 nM, 10 μM ATP, values given as pIC50 category
T1 construct: containing amino acid residues 979-1382 of human IR; made in house; host or cells: Sf9 cells (baculovirus), same process as hIGF1R
T1 sequence (P06213 979-1382): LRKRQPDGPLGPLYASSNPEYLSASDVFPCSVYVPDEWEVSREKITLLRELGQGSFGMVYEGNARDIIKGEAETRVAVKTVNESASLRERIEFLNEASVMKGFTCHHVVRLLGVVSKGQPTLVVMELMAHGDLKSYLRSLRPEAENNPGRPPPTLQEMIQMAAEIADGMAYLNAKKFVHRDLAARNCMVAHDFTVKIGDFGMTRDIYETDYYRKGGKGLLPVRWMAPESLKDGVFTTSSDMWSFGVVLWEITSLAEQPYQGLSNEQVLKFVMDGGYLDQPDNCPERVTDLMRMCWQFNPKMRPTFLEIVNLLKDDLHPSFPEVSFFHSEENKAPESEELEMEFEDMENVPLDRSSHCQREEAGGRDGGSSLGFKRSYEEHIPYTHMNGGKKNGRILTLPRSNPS
Experimental: (§1) Time Resolved Fluorescence Resonance Energy Transfer (TR-FRET) assays were carried out on the exemplified compounds as follows:
(§2) Purity is determined by HPLC. The calculated molecular mass of the peptide is 2216 dalton. Tyrosine phosphorylation by human IGF1R (hIGF1R) or human IR (hIR) occurs as indicated (Y*) in the peptide sequence described. Solid peptide sample is dissolved to approximately 1 mM in DMSO, aliquoted, and stored at −20° C. until use. True peptide concentration is determined by amino acid analysis.
hIR: GST-rTEV-IR(979-1382) containing amino acid residues 979-1382 of human IR (as annotated by NCBI accession number NP_000199) is expressed and purified by the same process as hIGF1R. […] Samples, in 25 mM Tris-HCl, 250 mM NaCl, 5% glycerol, 1 mM DTT, pH 7.5, are stored at −80° C. until use.
(§3) hIR: Activation of GST-rTEV-IGF-1R(957-1367) is achieved by a 5 minute incubation of hIR (2.7 μM final) with 2 mM ATP in 100 mM HEPES, 10 mM MgCL2, 0.1 mg/ml BSA, at room temperature. Autophosphorylation is stopped by addition of EDTA (to 100 mM final). Aliquoted samples are flash frozen in liquid nitrogen and stored at −80° C. until use.
(§4) Assays are performed in 384-well (Greiner, Catalog No. 784076) microtiter plates. Reaction buffer (50 mM HEPES buffer, pH 7.5; 10 mM MgCL2; 3 mM DTT; 1 mM CHAPS; 0.1 mg/ml BSA) for peptide phosphorylation (10 μl volume) contained, in final concentrations, 500 nM biotinylated peptide substrate; 10 μM ATP; and purified, activated hIGF1R or hIR (0.5 nM). Compounds, titrated in DMSO, are evaluated at eleven concentrations ranging from 50 μM to 0.2 nM. […] Reactions are incubated for 1 hour at room temperature and are stopped by a 5 μl addition of EDTA (to 33 mM). A further addition of 5 μl detection reagents (for final 7 nM Streptavidin-APC (Perkin Elmer #CR^130-150), 1 nM Europium-labeled anti-phosphotyrosine monoclonal antibody (PerkinElmer #AD0067), added in reaction buffer (without DTT), is required for signal generation. After 30 minutes, signal is read on PerkinElmer Viewlux microplate imager or Wallac Victor fluorometer.
(§5) The data for compound concentration responses were plotted as % Inhibition, calculated with the data reduction formula 100*(1-[(U1-C2)/(C1-C2)]), versus concentration of compound, where • U is the unknown value, • C1 is the average control value obtained for DMSO only, and • C2 is the average control value obtained for reactions stopped with EDTA at • t=0.
(§6) Data were fitted to the curve described by: y=((Vmax*x)/(K+x)) where • Vmax is the upper asymptote and • K is the IC50.

ALK = ALK (Homo sapiens, UniProt Q9UM73); test: ALK enzyme assay (HTRF); assay type: biochemical; settings: 0.25 nM ALK, 15.0 μM ATP, values given as pIC50 category
ALK, sequence (Q9UM73 19-1620): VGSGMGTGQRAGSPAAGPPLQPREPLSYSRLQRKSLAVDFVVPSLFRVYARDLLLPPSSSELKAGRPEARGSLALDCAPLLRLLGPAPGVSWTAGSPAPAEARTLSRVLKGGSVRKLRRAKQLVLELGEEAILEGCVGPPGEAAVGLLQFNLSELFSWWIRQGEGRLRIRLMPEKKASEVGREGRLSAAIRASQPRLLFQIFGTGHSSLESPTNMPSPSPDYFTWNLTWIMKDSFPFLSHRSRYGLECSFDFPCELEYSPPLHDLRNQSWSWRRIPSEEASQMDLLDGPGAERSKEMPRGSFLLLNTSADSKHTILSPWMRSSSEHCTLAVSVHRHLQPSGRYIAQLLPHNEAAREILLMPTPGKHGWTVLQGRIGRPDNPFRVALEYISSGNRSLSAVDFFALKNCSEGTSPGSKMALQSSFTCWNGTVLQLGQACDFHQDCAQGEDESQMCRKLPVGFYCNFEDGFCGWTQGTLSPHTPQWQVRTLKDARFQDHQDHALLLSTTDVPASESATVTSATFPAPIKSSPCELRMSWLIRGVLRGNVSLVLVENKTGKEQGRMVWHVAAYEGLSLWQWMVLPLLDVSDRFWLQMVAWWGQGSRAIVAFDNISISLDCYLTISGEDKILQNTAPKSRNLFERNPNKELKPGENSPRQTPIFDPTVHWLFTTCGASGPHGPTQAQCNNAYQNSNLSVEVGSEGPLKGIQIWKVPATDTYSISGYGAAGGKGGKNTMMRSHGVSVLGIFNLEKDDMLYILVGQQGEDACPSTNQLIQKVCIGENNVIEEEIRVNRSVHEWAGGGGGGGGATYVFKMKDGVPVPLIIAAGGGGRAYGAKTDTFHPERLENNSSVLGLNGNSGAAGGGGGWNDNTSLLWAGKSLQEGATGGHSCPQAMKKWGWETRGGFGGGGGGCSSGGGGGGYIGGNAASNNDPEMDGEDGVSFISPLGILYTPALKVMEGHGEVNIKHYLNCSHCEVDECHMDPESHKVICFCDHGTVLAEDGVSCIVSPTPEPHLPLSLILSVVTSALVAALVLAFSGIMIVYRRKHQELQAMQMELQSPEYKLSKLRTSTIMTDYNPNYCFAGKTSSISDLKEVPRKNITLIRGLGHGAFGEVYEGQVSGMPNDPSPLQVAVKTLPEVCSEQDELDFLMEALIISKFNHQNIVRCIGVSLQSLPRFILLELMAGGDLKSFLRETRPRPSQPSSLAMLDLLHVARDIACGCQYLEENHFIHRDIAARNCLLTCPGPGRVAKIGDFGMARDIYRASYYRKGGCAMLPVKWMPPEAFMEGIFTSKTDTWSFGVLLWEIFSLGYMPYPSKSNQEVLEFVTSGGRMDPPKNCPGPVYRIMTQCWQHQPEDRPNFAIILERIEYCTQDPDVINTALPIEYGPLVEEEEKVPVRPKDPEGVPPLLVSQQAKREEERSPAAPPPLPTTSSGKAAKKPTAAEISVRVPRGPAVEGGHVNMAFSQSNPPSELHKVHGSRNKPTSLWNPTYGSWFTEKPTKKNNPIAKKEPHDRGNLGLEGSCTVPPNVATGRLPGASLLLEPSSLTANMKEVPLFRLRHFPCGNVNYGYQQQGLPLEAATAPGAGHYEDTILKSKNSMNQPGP
Experimental: The method measures the ability of the isolated enzyme to catalyse the transfer of the gamma-phosphate from ATP onto the tyrosine residue of a biotinylated synthetic peptide. The extent of tyrosine phosphorylation was measured using an anti-phosphotyrosine antibody, and quantified by homogenous time-resolved fluorescence (HTRF) assay purchased from CisBio (62TK0PEJ).
Reactions were performed in black 384-well polystyrene low volume plates in a final volume of 5 μl.
The reactions were then started by adding the substrate mix. The reactions were allowed to proceed for 120 minutes at 20° C. The reactions were then terminated by the addition of 5 μl HTRF detection mix to each well. The final concentrations of the detection reagents were: 50 mM HEPES (pH7.0); 0.1% BSA; 0.8 M KF; 20 mM EDTA; 1 mM CHAPS; TK-antibody Europium Cryptate; and 41 nM streptavidin-XL665. Assay plates were left unsealed, stacked and incubated at 20° for 60 minutes. Quantification of activity was achieved by counting in an Envision Counter (PerkinElmer).
Compounds under analysis were dissolved in Me2SO to 1.0 mM and serially diluted 1 to 3 with Me2SO through twelve dilutions. 0.05 μl of each concentration was transferred to the corresponding well of an assay plate. This creates a final compound concentration range from 0.00017 to 10 μM.
The data for dose responses were plotted as % Inhibition calculated with the data reduction formula 100*(1-(U1-C2)/(C1-C2)) versus concentration of compound where U is the unknown value, C1 is the average control value obtained for 1% DMSO, and C2 is the average control value obtained for 0.1 M EDTA. Data were fitted with a curve described by:
[formula] where A is the minimum y, B is the maximum y concentration [M], D is the slope factor, and x is the log10 of the compound.

[1] = molecular target: T2, NIH-3T3 cells overexpressing human IGF-1R (Homo sapiens, UniProt P08069); test: IGF-1R cellular autophosphorylation (DELFIA); assay type: cell-based
T2 construct: expressed in transfected cells; host or cells: NIH-3T3 (mouse fibroblasts)
T2 sequence (P08069 31-1367): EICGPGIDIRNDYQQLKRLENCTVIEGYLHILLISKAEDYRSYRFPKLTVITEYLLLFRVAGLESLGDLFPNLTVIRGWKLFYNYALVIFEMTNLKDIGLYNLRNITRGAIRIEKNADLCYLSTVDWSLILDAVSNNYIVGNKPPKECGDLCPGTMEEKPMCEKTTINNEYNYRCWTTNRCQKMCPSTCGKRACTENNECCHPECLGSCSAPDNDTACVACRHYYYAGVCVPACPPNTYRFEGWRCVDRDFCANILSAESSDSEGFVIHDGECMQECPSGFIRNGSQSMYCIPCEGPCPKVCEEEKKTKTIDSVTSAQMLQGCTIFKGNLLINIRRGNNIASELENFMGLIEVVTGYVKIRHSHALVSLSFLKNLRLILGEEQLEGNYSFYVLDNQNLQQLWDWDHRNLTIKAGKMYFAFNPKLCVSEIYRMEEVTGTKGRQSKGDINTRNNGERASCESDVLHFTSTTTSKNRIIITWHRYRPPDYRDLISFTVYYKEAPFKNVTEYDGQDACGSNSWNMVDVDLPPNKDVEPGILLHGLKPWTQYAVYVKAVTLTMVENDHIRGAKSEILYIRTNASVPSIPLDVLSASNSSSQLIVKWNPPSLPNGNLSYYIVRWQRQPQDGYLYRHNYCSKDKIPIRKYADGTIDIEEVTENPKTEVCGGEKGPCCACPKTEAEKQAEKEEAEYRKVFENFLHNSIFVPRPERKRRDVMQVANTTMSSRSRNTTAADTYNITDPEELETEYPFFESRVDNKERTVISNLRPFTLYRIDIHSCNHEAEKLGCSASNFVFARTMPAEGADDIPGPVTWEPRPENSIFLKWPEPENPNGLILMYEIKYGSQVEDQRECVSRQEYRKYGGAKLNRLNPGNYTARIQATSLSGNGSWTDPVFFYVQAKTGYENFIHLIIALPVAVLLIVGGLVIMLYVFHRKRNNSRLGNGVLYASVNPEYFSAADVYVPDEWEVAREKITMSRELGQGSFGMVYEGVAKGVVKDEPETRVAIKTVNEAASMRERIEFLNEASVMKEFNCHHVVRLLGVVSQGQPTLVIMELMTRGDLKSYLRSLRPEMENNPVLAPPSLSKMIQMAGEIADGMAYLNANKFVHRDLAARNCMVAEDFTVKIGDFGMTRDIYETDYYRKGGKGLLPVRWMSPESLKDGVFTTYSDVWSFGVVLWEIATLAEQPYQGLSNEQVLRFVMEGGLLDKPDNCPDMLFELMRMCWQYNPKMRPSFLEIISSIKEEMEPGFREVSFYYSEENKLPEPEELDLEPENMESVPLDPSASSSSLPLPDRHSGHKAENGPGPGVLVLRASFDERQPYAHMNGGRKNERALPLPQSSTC
Experimental: NIH-3T3 cells overexpressing human IGF-1R or IR were plated in 96-well plates (10,000 cells/well) in culture media containing 10% fetal bovine serum and incubated at 37° C. in a 5% CO2 incubator. Twenty four hours post-plating, cells were treated with different concentrations of test compounds ranging from 30 uM to 1.5 nM. Two hours after compound addition, cells were stimulated with either human IGF-1 (30 ng/ml) or insulin (3 ug/ml) for 15 minutes. Cell lysates are analyzed for phosphorylated receptors using dissociation enhanced lanthanide fluor-immuno assay (DELFIA) with anti-IGF-1R (MAB391, R&D Systems, Minneapolis, Minn.) or anti-IRβ (sc-711, Santa Cruz Biotechnology, Santa Cruz, Calif.) capture antibody and europium-labeled anti-pTyr antibody (Eu-N1 PT66, Perkin Elmer, Waltham, Mass.) for detection. The fluorescence signal for cells treated with compounds was expressed as percent relative to 100% stimulation (IGF-1 or insulin stimulated signal).

human IGF1R (hIGF1R) = molecular target: T3, human IGF1R (hIGF1R) (Homo sapiens, UniProt P08069); test: TR-FRET kinase assay of purified hIGF1R; assay type: biochemical; settings: activated hIGF1R 0.5 nM, 10 μM ATP, values given as pIC50 category, read-out: IGF-1R pIC50 (converted)
T3 construct: containing amino acid residues 957-1367 of human IGF1R; made in house; host or cells: Sf9 cells (baculovirus)
T3 sequence (P08069 957-1367): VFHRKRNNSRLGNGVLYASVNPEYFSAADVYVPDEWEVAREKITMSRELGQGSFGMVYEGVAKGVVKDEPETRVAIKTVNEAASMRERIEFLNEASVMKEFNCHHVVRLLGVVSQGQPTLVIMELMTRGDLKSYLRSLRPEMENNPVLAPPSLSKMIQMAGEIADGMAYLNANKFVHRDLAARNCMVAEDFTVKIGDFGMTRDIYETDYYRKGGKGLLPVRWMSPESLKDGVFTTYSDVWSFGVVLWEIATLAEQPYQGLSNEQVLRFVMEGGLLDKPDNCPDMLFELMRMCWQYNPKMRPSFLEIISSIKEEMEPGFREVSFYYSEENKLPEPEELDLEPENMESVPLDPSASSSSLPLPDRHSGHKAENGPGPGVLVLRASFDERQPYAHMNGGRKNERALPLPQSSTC
Experimental: as §1, §2
hIGF1R: GST-rTEV-IGF-1R(957-1367) containing amino acid residues 957-1367 of human IGF1R (as annotated by National Center for Biotechnology Information (NCBI) accession number NP_000866) is purified from a baculovirus expression system in Sf9 cells using Glutathione Sepharose 4FF column chromatography followed by Sephadex-200 size exclusion column chromatography. […] Samples, in 25 mM Tris-HCl, 250 mM NaCl, 5% glycerol, 1 mM DTT, pH 7.5, are stored at −80° C. until use.
as §3, with “hIGF1R: Activation” for “hIR: Activation”, “a 4” for “a 5”, “of hIGF1R” for “of hIR”, “in 50” for “in 100”, “HEPES, 20” for “HEPES, 10”
as §4, §5, §6

| IC50 (human IR (hIR)) | IC50 (ALK) | IC50 [1] | IC50 (human IGF1R (hIGF1R)) | SMILES |
| --- | --- | --- | --- | --- |
| 0.251 to 1 nM | 0.251 to 1 nM | < 100 nM | 0.251 to 1 nM | COc1cc(C2=CCCN(C)C2)ccc1Nc1nc(Nc2ccccc2C(N)=O)c2cc[nH]c2n1 [Example 4, 2-[(2-{[2-(methyloxy)-4-(1-methyl-1,2,5,6-tetrahydro-3-pyridinyl)phenyl]amino}-1H-pyrrolo[2,3-d]pyrimidin-4-yl)amino]benzamide] |
| 0.251 to 1 nM | 0.251 to 1 nM | < 100 nM | 0.251 to 1 nM | COc1cc(C2CCCN(C)C2)ccc1Nc1nc(Nc2ccccc2C(N)=O)c2cc[nH]c2n1 (stereo not drawn) [Example 5, 2-[(2-{[2-(methyloxy)-4-(1-methyl-3-piperidinyl)phenyl]amino}-1H-pyrrolo[2,3-d]pyrimidin-4-yl)amino]benzamide] |
| 0.251 to 1 nM | 0.251 to 1 nM | < 100 nM | 0.251 to 1 nM | COc1cc(C2=CCCN(C(C)C)C2)ccc1Nc1nc(Nc2ccccc2C(N)=O)c2cc[nH]c2n1 [Example 6, 2-[(2-{[4-[1-(1-methylethyl)-1,2,5,6-tetrahydro-3-pyridinyl]-2-(methyloxy)phenyl]amino}-1H-pyrrolo[2,3-d]pyrimidin-4-yl)amino]benzamide] |
| 1.26 to 3.98 nM | 1.26 to 3.98 nM | 100 to 500 nM | 1.26 to 3.98 nM | Cc1cc(N2CCOCC2)ccc1Nc1nc(Nc2ccccc2C(N)=O)c2cc[nH]c2n1 [Example 11, 2-[(2-{[2-methyl-4-(4-morpholinyl)phenyl]amino}-1H-pyrrolo[2,3-d]pyrimidin-4-yl)amino]benzamide] |
| 0.251 to 1 nM | 0.251 to 1 nM | 100 to 500 nM | 1.26 to 3.98 nM | CNC(=O)c1ccccc1Nc1nc(Nc2ccc(C3=CCCN(C)C3)cc2OC)nc2[nH]ccc12 [Example 21, N-methyl-2-[(2-{[2-(methyloxy)-4-(1-methyl-1,2,5,6-tetrahydro-3-pyridinyl)phenyl]amino}-1H-pyrrolo[2,3-d]pyrimidin-4-yl)amino]benzamide] |
| 0.251 to 1 nM | 0.251 to 1 nM | 100 to 500 nM | 1.26 to 3.98 nM | CNC(=O)c1ccccc1Nc1nc(Nc2ccc(C3CCCN(C)C3)cc2OC)nc2[nH]ccc12 (stereo not drawn) [Example 22, N-methyl-2-[(2-{[2-(methyloxy)-4-(1-methyl-3-piperidinyl)phenyl]amino}-1H-pyrrolo[2,3-d]pyrimidin-4-yl)amino]benzamide] |
| 1.26 to 3.98 nM | 0.251 to 1 nM | 100 to 500 nM | 1.26 to 3.98 nM | CNC(=O)c1ccccc1Nc1nc(Nc2ccc(N3CCN(C(C)C)CC3)cc2OC)nc2[nH]ccc12 [Example 25, N-methyl-2-[(2-{[4-[4-(1-methylethyl)-1-piperazinyl]-2-(methyloxy)phenyl]amino}-1H-pyrrolo[2,3-d]pyrimidin-4-yl)amino]benzamide] |
| 1.26 to 3.98 nM | 5.01 to 200 nM | > 500 nM | 5.01 to 200 nM | Cc1ccc(NC(=O)CN(C)C)cc1Nc1nc(Nc2ccccc2C(=O)NCCO)c2cc[nH]c2n1 [Example 26, 2-{[2-({5-[(N,N-dimethylglycyl)amino]-2-methylphenyl}amino)-1H-pyrrolo[2,3-d]pyrimidin-4-yl]amino}-N-(2-hydroxyethyl)benzamide] |
| 0.251 to 1 nM | 0.251 to 1 nM | > 500 nM | 0.251 to 1 nM | Cc1ccc(NC(=O)CN(C)C)cc1Nc1nc(Nc2ccccc2C(=O)NO)c2cc[nH]c2n1 [Example 28, 2-{[2-({5-[(N,N-dimethylglycyl)amino]-2-methylphenyl}amino)-1H-pyrrolo[2,3-d]pyrimidin-4-yl]amino}-N-hydroxybenzamide] |
| 5.01 to 158 nM | 5.01 to 200 nM | > 500 nM | 5.01 to 200 nM | COc1cc(N2CCN(C(C)C)CC2)ccc1Nc1nc(Nc2cccc(C)c2C(N)=O)c2cc[nH]c2n1 [Example 31, 2-methyl-6-[(2-{[4-[4-(1-methylethyl)-1-piperazinyl]-2-(methyloxy)phenyl]amino}-1H-pyrrolo[2,3-d]pyrimidin-4-yl)amino]benzamide] |
| 1.26 to 3.98 nM | 0.251 to 1 nM | > 500 nM | 1.26 to 3.98 nM | CCCN1CCC=C(c2ccc(Nc3nc(Nc4ccc(C)cc4C(N)=O)c4cc[nH]c4n3)c(OC)c2)C1 [Example 33, 5-methyl-2-[(2-{[2-(methyloxy)-4-(1-propyl-1,2,5,6-tetrahydro-3-pyridinyl)phenyl]amino}-1H-pyrrolo[2,3-d]pyrimidin-4-yl)amino]benzamide] |
| 1.26 to 3.98 nM | 0.251 to 1 nM | 100 to 500 nM | 1.26 to 3.98 nM | CCCN1CCC=C(c2ccc(Nc3nc(Nc4ccc(OC)cc4C(N)=O)c4cc[nH]c4n3)c(OC)c2)C1 [Example 38, 5-(methyloxy)-2-[(2-{[2-(methyloxy)-4-(1-propyl-1,2,5,6-tetrahydro-3-pyridinyl)phenyl]amino}-1H-pyrrolo[2,3-d]pyrimidin-4-yl)amino]benzamide] |
